Assay results taken from patent publication US20260102383A1, “LPAR1 Inhibitors” (AbbVie Inc., priority 2024, published 2026).
pIC50: −log10 of the molar value.

What follows are molecules tested against T1, human LPAR1 (Homo sapiens, UniProt Q92633) (assay: Arrestin assay (Arrestin Reporter EDG2-bla U2OS), inhibition of LPA-stimulated signal). Conditions: TangoEDG2-bla U2OS cells expressing human LPAR1; 0.25 μM LPA; read-out: Arrestin Reporter EDG2-bla U2OS Human Merged IC50.
T1 construct: host or cells: TangoEDG2-bla U2OS cells
Format: cell-based
Description: The inhibitory activity of compounds 15, 62, 77, 84 and 169 against LPAR1 was measured using an Arrestin assay in U2OS cells expressing human LPAR1.
FreeStyle media was warmed in a 37° C. water bath. Cryo-preserved vial(s) of TangoEDG2-bla U2OS cells were rapidly thawed in a 37° C. water bath. The thawed cells were added to FreeStyle media and cells were pelleted at 300×g for 5 minutes. The supernatant was aspirated, and cells were resuspended in FreeStyle media. Cell density was adjusted to 0.25×10^6 cells/mL. Cells (1×10^4 in 40 μL) were added to each well of Greiner 384 well black cell plate(s). Cell plate(s) were placed in a humidified 37° C./5% CO2 incubator for 18-20 hours. Dilutions of test compound were prepared at 6× final concentration; 12-point, 3-fold dilutions using HH Buffer (1×HBSS plus 20 mM HEPES). The 6× test compound was then added to the cell plate(s) at 10 μL/well. The final concentration ranged from 10 μM to 0.00006 μM. Cell plate(s) were incubated in a humidified 37° C./5% CO2 incubator for 1 hour. During the incubation, 6×LPA was prepared at 1.5 μM in 0.1% BSA HH Buffer. After the 1-hour incubation of test compound with cells, the LPA was added to the cell plate(s) at 10 μL/well (final LPA concentration of 0.25 μM). Cell plate(s) were returned to a humidified 37° C./5% CO2 incubator for 3 hours. The Development solution was made up per the LiveBLAzerFRET B/G kit protocol. The Development solution was added to the cell plate(s) at 10 μL/well. Cell plates were incubated in the dark at room temperature for 2 hours. Plate(s) were read on an Envision Plate Reader (Perkin Elmer) to read fluorescence; excitation at 409 nm with emission at 460 nm and 530 nm. Raw Data for analysis is the ratio of emission at 460 nm divided by emission 530 nm. The formula used to determine % Inhibition is as follows (1−(Raw Data−Low Average)/(High Average−Low Average))*100. Percent Inhibition was plotted to determine IC50 value with GraphPad Prism 9.5.0 software using Variable slope 4-parameter curve fit analysis.
Additional compounds of the present disclosure were synthesized in a manner similar to the compounds described above and understood by a person of ordinary skill in the art. The inhibitory activity of the compounds of the present disclosure against LPAR1 was measured using the above-referenced Arrestin Assay protocol.

T1 sequence (Q92633 whole entry): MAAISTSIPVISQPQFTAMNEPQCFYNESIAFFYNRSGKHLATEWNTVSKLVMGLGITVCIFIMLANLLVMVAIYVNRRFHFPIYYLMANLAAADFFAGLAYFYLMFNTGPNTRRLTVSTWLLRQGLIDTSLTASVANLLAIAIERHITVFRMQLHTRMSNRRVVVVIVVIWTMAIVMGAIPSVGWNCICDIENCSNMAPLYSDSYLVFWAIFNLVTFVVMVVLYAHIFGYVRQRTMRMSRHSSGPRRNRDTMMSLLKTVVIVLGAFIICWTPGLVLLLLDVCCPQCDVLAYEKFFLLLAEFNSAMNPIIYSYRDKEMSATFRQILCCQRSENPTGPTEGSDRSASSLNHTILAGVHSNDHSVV

SMILES | pIC50
CC(C)c1ccnn1C1(C(=O)Nc2ccc(Cl)cc2OC(F)F)CCN(C[C@@H](C(=O)O)C2CCOCC2)CC1 (single isomer, unassigned) [Compound 14, (2.5)-3-[4-[[4-chloro-2-(difluoromethoxy)phenyl]carbamoyl]-4-(5-isopropylpyrazol-1-yl)-1-piperidyl]-2-tetrahydropyran-4-yl-propanoic acid] | 7.47
COc1cccc([C@H](CN2CCC(C(=O)Nc3ccc(Cl)cc3OC(F)F)(n3nccc3C(C)C)CC2)C(=O)O)c1 (single isomer, unassigned) [Compound 32] | 8.51
CC(C)c1ccnn1C1(C(=O)Nc2ccc(Cl)cc2OC(F)F)CCN(C[C@@]2(C(=O)O)CCCCO2)CC1 (single isomer, unassigned) [Compound 38] | 7.73
CC(C)c1ccnn1C1(C(=O)Nc2ccc(Cl)cc2OC(F)F)CCN(C[C@]2(C(=O)O)CCCCO2)CC1 (single isomer, unassigned) [Compound 39, (2.5)-2-[[4-[[4-chloro-2-(difluoromethoxy)phenyl]carbamoyl]-4-(5-isopropylpyrazol-1-yl)-1-piperidyl]methyl]tetrahydropyran-2-carboxylic acid] | 7.89
CC(C)c1ccnn1C1(C(=O)Nc2ccc(Cl)cc2OC(F)F)CCN(C[C@@](C)(C(=O)O)C2CCOCC2)CC1 (single isomer, unassigned) [Compound 78, (2.5)-3-[4-[[4-chloro-2-(difluoromethoxy)phenyl]carbamoyl]-4-(5-isopropylpyrazol-1-yl)-1-piperidyl]-2-methyl-2-tetrahydropyran-4-yl-propanoic acid] | 7.32
CC(C)c1ccnn1C1(C(=O)Nc2ccc(Cl)cc2OC(F)F)CCN(C[C@]2(C(=O)O)CC[C@@H](O)CC2)CC1 (single isomer, unassigned) [Compound 95, (1s,4s)-1-[[4-[[4-chloro-2-(difluoromethoxy)phenyl]carbamoyl]-4-(5-isopropylpyrazol-1-yl)-1-piperidyl]methyl]-4-hydroxy-cyclohexanecarboxylic acid] | 7.93
CC(C)c1ccnn1C1(C(=O)Nc2ccc(Cl)cc2OC(F)F)CCN(C[C@@H](C(=O)O)N2CCOCC2)CC1 (single isomer, unassigned) [Compound 150, (25)-3-[4-[[4-chloro-2-(difluoromethoxy)phenyl]carbamoyl]-4-(5-isopropylpyrazol-1-yl)-1-piperidyl]-2-morpholino-propanoic acid] | 7.00
CC(C)c1ccnn1C1(C(=O)Nc2ccc(Cl)cc2OC(F)F)CCN(C[C@H](C(=O)O)c2cnn(C)c2)CC1 (single isomer, unassigned) [Compound 154] | 7.19
CC(C)c1ccnn1C1(C(=O)Nc2ccc(Cl)cc2OC(F)F)CCN(C[C@H](CC#N)C(=O)O)CC1 (single isomer, unassigned) [Compound 163] | 7.41
COC[C@H](CN1CCC(C(=O)Nc2ccc(Cl)cc2OC(F)F)(n2ncc(F)c2C(C)C)CC1)C(=O)O (single isomer, unassigned) [Compound 170] | 7.48
CO[C@H]1CC[C@@H]([C@H](CN2CCC(C(=O)Nc3ccc(Cl)cc3OC(F)F)(n3nccc3C(C)C)CC2)C(=O)O)CC1 (single isomer, unassigned) [Compound 184] | 7.11
CO[C@H]1CC[C@H]([C@H](CN2CCC(C(=O)Nc3ccc(Cl)cc3OC(F)F)(n3nccc3C(C)C)CC2)C(=O)O)CC1 (single isomer, unassigned) [Compound 185] | 7.24
CC(C)c1c(Cl)cnn1C1(C(=O)Nc2ccc(Cl)cc2OC(F)F)CCN(C[C@@H](C(=O)O)C2CCOCC2)CC1 (single isomer, unassigned) [Compound 197] | 7.85
CC(C)c1c(Cl)cnn1C1(C(=O)Nc2ccc(Cl)cc2OC(F)F)CCN(C[C@H](C(=O)O)C2CCOCC2)CC1 (single isomer, unassigned) [Compound 198] | 7.51
CC(C)c1ccnn1C1(C(=O)Nc2ccc(Cl)cc2OC(F)F)CCN(CC2(C(=O)O)CCOCC2)CC1 [Compound 3, 4-[[4-[[4-chloro-2-(difluoromethoxy)phenyl]carbamoyl]-4-(5-isopropylpyrazol-1-yl)-1-piperidyl]methyl]tetrahydropyran-4-carboxylic acid] | 7.83

Continued, values first:

pIC50 | SMILES
7.32 | CC(C)c1ccnn1C1(C(=O)Nc2ccc(Cl)cc2OC(F)F)CCN([C@H]2C[C@@]3(C[C@H]3C(=O)O)C2)CC1 (relative stereo) [Compound 106, rel-(1R,3r,5S)-5-[4-1[4-chloro-2-(difluoromethoxy)phenyl]carbamoyl]-4-(5-isopropylpyrazol-1-yl)-1-piperidyl]spiro[2.3]hexane-2-carboxylic acid]
7.46 | CC(C)c1ccnn1C1(C(=O)Nc2ccc(Cl)cc2OC(F)F)CCN([C@H]2C[C@@H](C(=O)O)C2)CC1 (single isomer, unassigned) [Compound 61, (1s,3s)-3-[4-[[4-chloro-2-(difluoromethoxy)phenyl]carbamoyl]-4-(5-isopropylpyrazol-1-yl)-1-piperidyl]cyclobutanecarboxylic acid]
7.81 | COC[C@@H](CN1CCC(C(=O)Nc2ccc(Cl)cc2OC(F)F)(n2nccc2C(C)C)CC1)C(=O)O (single isomer, unassigned) [Compound 119]
7.41 | CC(C)c1c(F)cnn1C1(C(=O)Nc2ccc(Cl)cc2OC(F)F)CCN([C@H]2C[C@@H](C(=O)O)C2)CC1 (single isomer, unassigned) [Compound 123, (1s,3s)-3-[4-[[4-chloro-2-(difluoromethoxy)phenyl]carbamoyl]-4-(4-fluoro-S-isopropyl-pyrazol-1-yl)-1-piperidyl]cyclobutanecarboxylic acid]
7.24 | CC(C)c1ccnn1C1(C(=O)Nc2ccc(Cl)cc2OC(F)F)CCN([C@@H]2CO[C@H](C(=O)O)C2)CC1 (single isomer, unassigned) [Compound 137]
6.88 | CC(C)c1ccnn1C1(C(=O)Nc2ccc(Cl)cc2OC(F)F)CCN([C@H]2CO[C@H](C(=O)O)C2)CC1 (single isomer, unassigned) [Compound 140]
7.46 | CC(C)c1ccnn1C1(C(=O)Nc2ccc(Cl)cc2OC(F)F)CCN(C[C@@H](C(=O)O)[C@H]2CCOC2)CC1 (single isomer, unassigned) [Compound 149]
7.12 | CC(C)c1ccnn1C1(C(=O)Nc2ccc(Cl)cc2OC(F)F)CCN(C[C@@H](C(=O)O)[C@@H]2CCOC2)CC1 (single isomer, unassigned) [Compound 151]
7.39 | CC(C)c1ccnn1C1(C(=O)Nc2ccc(Cl)cc2OC(F)F)CCN(C[C@H](C(=O)O)[C@@H]2CCOC2)CC1 (single isomer, unassigned) [Compound 152]
7.18 | CC(C)c1ccnn1C1(C(=O)Nc2ccc(Cl)cc2OC(F)F)CCN([C@H]2CC[C@H](C(=O)O)OC2)CC1 (single isomer, unassigned) [Compound 192]
7.04 | CO[C@]1(C(=O)O)C[C@@H](N2CCC(C(=O)Nc3ccc(Cl)cc3OC(F)F)(n3nccc3C(C)C)CC2)C1 (single isomer, unassigned) [Compound 194, (1r,3r)-3-[4-[[4-chloro-2-(difluoromethoxy)phenyl]carbamoyl]-4-(5-isopropylpyrazol-1-yl)-1-piperidyl]-1-methoxy-cyclobutanecarboxylic acid]
7.55 | CC(C)c1ccnn1C1(C(=O)Nc2ccc(Cl)cc2OC(F)F)CCN(CC2(C(=O)O)CCOC2)CC1 (stereo in doubt) [Compound 23, (3S)-3-[[4-[[4-chloro-2-(difluoromethoxy)phenyl]carbamoyl]-4-(5-isopropylpyrazol-1-yl)-1-piperidyl]methyl]tetrahydrofuran-3-carboxylic acid]
7.26 | CC(C)c1ccnn1C1(C(=O)Nc2ccc(Cl)cc2OC(F)F)CCN(CC(=O)O)CC1 [Compound 1, 2-[4-[[4-chloro-2-(difluoromethoxy)phenyl]carbamoyl]-4-(5-isopropylpyrazol-1-yl)-1-piperidyl]acetic acid]
7.30 | CC(C)c1ccnn1C1(C(=O)Nc2ccc(Cl)cc2OC(F)F)CCN(CCC(C)(C)C(=O)O)CC1 [Compound 2, 4-[4-[[4-chloro-2-(difluoromethoxy)phenyl]carbamoyl]-4-(5-isopropylpyrazol-1-yl)-1-piperidyl]-2,2-dimethyl-butanoic acid]
